Assay [1] relates to Fb859 propionic acidemia patient fibroblasts. Kind of assay: Lysine succinylation of cellular proteins by immunofluorescence confocal microscopy. Type of assay: cell-based, human. The following applies: media without glucose; for lysine succinylation (green) signal: FIGS. 8A-8F, 30 μM and 90 μM, pyruvate, glutamine, stripped FBS; for lysine succinylation (green staining) compared to untreated cells: FIG. 7, 90 μM, 72 hours, glutamine or pyruvate, lipid stripped FBS. The protocol: FIG. 7 are immunocytochemistry photomicrographs showing the effect of incubation of Fb859 propionic acidemia patient fibroblasts on for lysine succinylation with 90 μM of PMA010, 90 μM of PMA011, 90 μM of succinic acid, 90 μM of methylmalonic acid, or 90 μM adipic acid for 72 hours. Immunocytochemistry of the fibroblast cells were stained for anti-succinyllysine antibody, anti-MTCO1 antibody and DAPI for nuclei. Instrument: Zeiss LSM 710 confocal Microscopy. Magnification: 40×. The cells were grown in glass coverslips at a seeding density of 3-5×10^4 cells. The media for untreated and treatment groups had no glucose, glutamine or pyruvate, and lipid stripped FBS was included instead of regular FBS. Scale bar=20 μm.
FIGS. 8A-8F are a comparison of lysine succinylation of cellular proteins visualized by immunofluorescence confocal microscopy in a Propionic Acidemia (Fb859) patient untreated (FIG. 8A) and treated with 30 μM and 90 μM of D-Serine (FIG. 8B), 30 µM and 90 μM of PMA007 (FIG. 8C), or 30 μM and 90 μM of PMA010 (FIG. 8D). Scale bar=20 μm. FIG. 8E is a bar graph showing the quantification of the percent change in lysine succinylation (green) signal, from the immunofluorescence confocal micrographs of FIGS. 8B and 8C, in response to the treatment of D-serine and PMA007. FIG. 8F is a bar graph showing the quantification of the percent change in lysine succinylation (green) signal, from the immunofluorescence confocal micrographs of a D-Serine repeat experiment and FIG. 8D, in response to the treatment of D-serine and PMA010. Asterisks indicate statistical significance calculated at the raw data level (n=3); **P<0.01, ***P<0.001, ****P<0.0001 statistically compared to untreated. Statistical analysis used T-test.
Immunohistochemistry: Patient cells were grown in glass coverslips at a seeding density of 3-5×10^4 cells. The media for untreated and treatment groups had no glucose, glutamine or pyruvate, and lipid stripped FBS was included instead of regular FBS. NIH Image J software was used to quantify the fluorescence intensity from 50-60 cells per group. Immunocytochemistry of propionic acidemia patient (Fb859) fibroblast cells lines stained for anti-succinyllysine (Green), anti-MTCO1 (Red), or anti-TOMM20 antibodies, and DAPI (Blue) for nuclei. Instrument: Zeiss LSM 710 confocal Microscopy. Statistical analysis used Tukey multiple range test. ****P<0.0001, [PMA010] (90 μM) treatment group statistically compared to control cells grown in the presence of regular complete DMEM media, untreated and [PMA010] (30 μM) cells grown in the absence of glucose/pyruvate/L-glutamine.

Another assay deals with rat liver mitochondrial. The following applies: in vitro; cited from earlier work.
The test system of the next assay is HEK293 PCCA−/− cells. Kind of assay: Lysine succinylation of cellular proteins by immunofluorescence confocal microscopy. Type of assay: cell-based, human. The following applies: FIGS. 9C, 9D; 30 μM and 90 μM; media without glucose, pyruvate, and glutamine. On the procedure:
FIGS. 9A-9F are a comparison of lysine succinylation of cellular proteins visualized by immunofluorescence confocal microscopy in human HEK293 control and HEK293 PCCA^−/− cells untreated (FIGS. 9A and 9B) and treated with 30 μM and 90 μM of PMA007 (FIG. 9C) or 30 μM and 90 μM of PMA010 (FIG. 9D). The cells in FIGS. 9B, 9C, and 9D were grown in media without glucose, pyruvate, and glutamine. Scale bar=20 μm. FIG. 9E is a bar graph showing the quantification of the percent change in lysine succinylation (green) signal, from the immunofluorescence confocal micrographs of FIGS. 9B and 9C, in response to the treatment of PMA007. FIG. 9F is a bar graph showing the quantification of the percent change in lysine succinylation (green) signal, from the immunofluorescence confocal micrographs of FIGS. 9B and 9D, in response to the treatment of PMA010. Asterisks indicate statistical significance calculated at the raw data level (n=3); **P<0.01. ****P<0.0001 statistically compared to untreated. Statistical analysis used T-test.
FIGS. 9A-9F are a comparison of lysine succinylation of cellular proteins visualized by immunofluorescence confocal microscopy in human HEK293 control and in untreated and treated HEK293 PCCA^−/− knock out cells. […] The PMA007 treatment data in the bar graph of FIG. 9E are the quantitation of the images of FIG. 9C compared to untreated control in FIG. 9B. […]

In the next assay the test system is PA patient cells, Fb859. The assay is described as follows: Measurement of mitochondrial respiration (Seahorse XF MitoStress test, OCR). Particulars: FIGS. 12A-12D; 30 μM and 90 μM for 72 h. Type of assay: cell-based, human. On the procedure:
Measurement of Mitochondrial Respiration Seahorse: Fb859 cells were grown in regular DMEM media until 85-90% confluency. The cells were harvested and seeded at a concentration of 25,000 cells/80 μl (n=8 replicates) in poly-D lysine coated XFe seahorse 96well plate in regular DMEM media and incubated overnight at 37° C. in a 5% CO2 incubator. Following day, the culture media was replaced in designated wells with the following for 72 h:180 μl of Specialty Media A (seahorse XFDMEM base media+10% fat stripped FBS+Glucose+sodium pyruvate+L-glutamine+0.5 mM carnitine). 180 μl of Specialty Media B (scahorse XFDMEM base media+10% stripped FBS+0.5 mM carnitine and no added glucose, sodium pyruvate or glutamine). 180 μl of Specialty media B containing experimental compounds. After 72 h incubation the Specialty media A & B was replaced in respective designated wells with 180 μL Seahorse XF DMEM base media containing glucose, sodium pyruvate. […] OCR was determined (Seahorse XF MitoStress test). Finally, cells were lysed, and protein content was determined. […]
Measurement of Mitochondrial Respiration: Control Fb826 and Patient Fb859 cells were grown in regular DMEM media without adding extra glutamine until 85-90% confluency. […] Oxygen consumption rate (OCR) was determined (Seahorse XF MitoStress test). Finally, cells were lysed, and protein content was determined. […]

Assay [2] deals with glutaric acidemia II (GA II) fibroblast cell line Fb930. Kind of assay: Mitochondrial ROS production using MitoSOX Red. Type of assay: cell-based, human. The following applies: FIG. 15D; 600 and 1200 μM, 72 h; preliminary test. The source says: (§1) FIGS. 15A-15D are graphs showing the measurement of mitochondrial reactive oxygen species (ROS) production using MitoSOX Red as Superoxide indicator probe. FIG. 15A is a graph showing control fibroblast cell line FB826 treated with PMA010, PMA011, PMA019, and PMA020. FIG. 15B is a graph showing propionic acidemia (PA) patients' fibroblast cell linc Fb859 treated with PMA010, PMA011, PMA019, and PMA020. FIG. 15C is a graph showing propionic acidemia (PA) patients' fibroblast cells line Fb900 treated with PMA010, PMA011, PMA019, and PMA020. FIG. 15D is a graph comparing ROS production levels in response to treatment with PMA011 in Control fibroblast cell line (FB826), PA fibroblast cell line (Fb900), and glutaric acidemia II (GA II) patient fibroblast cell lines (Fb930, Fb961). Data are the average of readings from 3 replicate wells.
(§2) Measurement of mitochondrial ROS production using MitoSOX Red as superoxide indicator probe: control (Fb826), PA patient (Fb859, Fb900) and GA II patient (Fb930, Fb961) fibroblasts were grown in regular DMEM media containing glucose/pyruvate/L-glutamine until 85-90% confluency. The cells were harvested and seeded at a concentration of 25,000 cells/80 μl (n=3) in cell culture treated black wall 96 well microplate with clear bottom in regular DMEM media containing glucose/pyruvate/L-glutamine and incubated overnight at 37° C. in a 5% CO2 incubator. Following day, the culture media was replaced in designated wells with the following for 72 h: 150 μl regular DMEM (Glucose+10% FBS+sodium pyruvate+L-glutamine+0.5 mM carnitine). 150 μl of Regular DMEM containing experimental compounds (180 and 640 μM) PMA010 or PMA011 or PMA 019 and (640 μM) PMA020 in control and propionic acidemia patient fibroblasts. 150 μl of regular DMEM containing experimental compounds (600 and 1200 μM) PMA011 in Fb930 and (1200 μM) PMA011 in Fb961 GA II patient fibroblast. After 72 h incubation the wells were washed twice with 150 μL of Seahorse XFDMEM base media and in respective designated wells the following Assay buffer (150 μL of seahorse XFDMEM base media containing glucose, sodium pyruvate and Glutamine) was used along with 5 μM MitoSOX reagent and incubated at 37° C. non-CO2 incubator for 15 minutes protected from light. After 15 minutes incubation the cells were washed twice with 150 μL of seahorse XFDMEM base media and replaced with measurement buffer, which is same as the wash buffer. The fluorescence was monitored with excitation at 520 nm and emission at 580 nm. Finally, cells were lysed, and protein content was determined. Data is normalized to protein concentration and fluorescence is reported as MitoSOX Red (AFU)/mg protein.

The subject of assay [3] is propionic acidemia (PA) fibroblast cell line Fb900. Kind of assay: Mitochondrial ROS production using MitoSOX Red. The format is cell-based, human. The following applies: FIG. 15C; 180 and 640 μM, 72 h.
Source text: as §1, §2

For assay [4], the system named is glutaric acidemia II (GA II) fibroblast cell line Fb961. Kind of assay: Mitochondrial ROS production using MitoSOX Red. Type of assay: cell-based, human. Particulars: FIG. 15D; 1200 μM, 72 h; preliminary test.
Source text: as §1, §2

A further assay relates to PA patients. Particulars: clinical study initiated in 2008; cited from earlier work.

Consider `N[C@H](CO)C(=O)O` [D-serine, reference compound], for which, in assay [1], the “lysine succinylation (green) signal” value was “Restoration of lysine succinylation (green) signal”.

As for `O=C(O)C[C@H](O)C(=O)O` [L-malate], in the assay with rat liver mitochondrial, the “reduction of propionate level” value is recorded as 46% and the “reduction of propionyl-CoA levels in the mitochondrial matrix” value was 62%.

For the compound `N[C@H](COC(=O)CCCCC(=O)O)C(=O)N[C@@H](Cc1c[nH]cn1)C(=O)O` [PMA007, 6-((R)-2-amino-3-(((S)-1-carboxy-2-(1H-imidazol-4-yl)ethyl)amino)-3-oxopropoxy)-6-oxohexanoic acid], the “lysine succinylation (green) signal” value is recorded as “Restoration of lysine succinylation (green) signal” in assay [1] and “green color was restored” in the assay with HEK293 PCCA−/− cells. For the same compound, in the assay on PA patient cells, Fb859, the “oxygen consumption parameters compared to individual components D-Serine and D-Histidine” value is “improved”.

Regarding `CC(C(=O)O)C(=O)N[C@H](C)C(=O)N[C@H](Cc1c[nH]cn1)C(=O)O` (stereo partly drawn) [PMA011, 3-(((R)-1-(((R)-1-carboxy-2-(1H-imidazol-4-yl)ethyl)amino)-1-oxopropan-2-yl)amino)-2-methyl-3-oxopropanoic acid], the “ROS detected (MitoSOX Red) compared to no treatment” value in assay [2] and in assay [4] was “significant decrease in ROS” in each case. Moreover, the “ROS detected (MitoSOX Red)” value in assay [3] is “similarly effective”. In addition, the “lysine succinylation (green staining) compared to untreated cells” value in assay [1] is reported as “obvious increase in the green staining”.

As to `O=C(O)CCCCC(=O)O` [adipic acid, reference compound], in assay [1], the “lysine succinylation (green staining) compared to untreated cells” value is given as “obvious increase in the green staining”.

Consider `O=C(O)CC(O)(CC(=O)O)C(=O)O` [citrate], for which the “clinical benefit of supplementation” value in the assay with PA patients is on record as “can be beneficial in some cases”.

Turning to `CC(C(=O)O)C(=O)O` [methylmalonic acid], the “lysine succinylation (green staining) compared to untreated cells” value in assay [1] is given as “obvious increase in the green staining”.

As to `O=C(O)CCC(=O)O` [succinic acid, reference compound], in assay [1], the “lysine succinylation (green staining) compared to untreated cells” value is reported as “obvious increase in the green staining”.

The values are drawn from patent publication US20260021186A1, “Fatty Acid-D-Amino Acid Peptides Conjugates as Anaplerotic Compounds for Use in Treating Propionic Acidemia, Methylmalonic Acidurias, and Energy Metabolic Disorders” (University of Pittsburgh - Of the Commonwealth System of …, priority 2022, published 2026).
